In ChEMBL document CHEMBL6078706, “Deciphering the Comprehensive Structure-Activity Relationship of Sunshinamide for Breast Cancer Therapy through Dual Modulation of Apoptotic and Ferroptotic Pathways via TrxR1 and Gpx4 Inhibition” (J Med Chem, 2024):
Active and inactive are the calls of the source. No cut-off for these calls is given here.

Tests used:
[1] = tested on: MDA-MB-468; experiment: Induction of endoplasmic reticulum (ER) stress-mediated apoptosis in human MDA-MB-468 cells assessed as increase in CHOP expression at 25 nM measured at 2 hrs by Western blot analysis; assay type: functional, cell-based
[2] = tested on: 4T1; experiment: Antitumor activity against mouse 4T1 cells implanted in female BALB/c mouse model assessed as increase in IFN-gamma expression in tumor at 10 mg/kg, iv administered upto 5 days; assay type: functional, organism-based; conditions: time <= 5.0 day
[3] = Toxicity in female BALB/c mouse implanted with mouse 4T1 cells assessed as kidney damage at 10 mg/kg, iv; assay type: organism-based; conditions: in vivo
[4] = tested on: MDA-MB-468; experiment: Induction of ROS production in human MDA-MB-468 cells assessed as increase in fluorescent signal at 25 nM incubated for 6 hrs in presence of N-acetyl cysteine by DCFH-DA staining based flow cytometry analysis; assay type: functional, cell-based
[5] = Toxicity in female BALB/c mouse implanted with mouse 4T1 cells assessed as kidney inflammation at 10 mg/kg, iv; assay type: organism-based; conditions: in vivo
[6] = Toxicity in female BALB/c mouse implanted with mouse 4T1 cells assessed as spleen abnormality at 10 mg/kg, iv; assay type: organism-based; conditions: in vivo
[7] = tested on: Cisplatin-resistant 4T1; experiment: Antiproliferative activity against mouse Cisplatin-resistant 4T1 cells assessed as reduction in cell viability incubated for 48 hrs by MTT assay; assay type: functional, cell-based
[8] = tested on: 4T1; experiment: Antitumor activity against mouse 4T1 cells implanted in female BALB/c mouse assessed as induction of intracellular ROS accumulation in tumor at 10 mg/kg, iv administered upto 5 days; assay type: functional, organism-based; conditions: time <= 5.0 day
[9] = Toxicity in female BALB/c mouse implanted with mouse 4T1 cells assessed as heart abnormality at 10 mg/kg, iv; assay type: organism-based; conditions: in vivo
[10] = tested on: MDA-MB-468; experiment: Induction of apoptosis in human MDA-MB-468 cells assessed as increase in caspase 3/7 activation at 25 nM measured at 4 hrs by Western blot analysis; assay type: functional, cell-based
[11] = Toxicity in female BALB/c mouse implanted with mouse 4T1 cells assessed as heart damage at 10 mg/kg, iv; assay type: organism-based; conditions: in vivo
[12] = tested on: Cisplatin-resistant 4T1; experiment: Antitumor activity against mouse Cisplatin-resistant 4T1 cells implanted in female BALB/c mouse assessed as increase in 4-HNE level at 10 mg/kg, ip; assay type: functional, organism-based
[13] = Toxicity in female BALB/c mouse implanted with mouse 4T1 cells assessed as spleen lesion at 10 mg/kg, iv; assay type: organism-based; conditions: in vivo
[14] = tested on: 4T1; experiment: Antitumor activity against mouse 4T1 cells implanted in female BALB/c mouse assessed as increase in CHOP level in tumor at 10 mg/kg, iv administered upto 5 days by Western blot analysis; assay type: functional, organism-based; conditions: time <= 5.0 day
[15] = tested on: 4T1; experiment: Antitumor activity against mouse 4T1 cells implanted in female BALB/c mouse assessed as increase in phospho eIF2alpha level in tumor at 10 mg/kg, iv administered upto 5 days by Western blot analysis; assay type: functional, organism-based; conditions: time <= 5.0 day
[16] = tested on: 4T1; experiment: Antitumor activity against mouse 4T1 cells implanted in female BALB/c mouse model assessed as reduction in proportion of CD11b+ IL-6+ cells in tumor at 10 mg/kg, iv administered upto 5 days; assay type: functional, organism-based; conditions: time <= 5.0 day
[17] = Toxicity in female BALB/c mouse implanted with mouse 4T1 cells assessed as lung lesion at 10 mg/kg, iv; assay type: organism-based; conditions: in vivo
[18] = tested on: MDA-MB-468; experiment: Induction of apoptosis in human MDA-MB-468 cells assessed as increase in activation of caspase at 25 nM by Western blot analysis; assay type: functional, cell-based; conditions: time 24.0 hrs
[19] = Toxicity in female BALB/c mouse implanted with mouse 4T1 cells assessed as liver inflammation at 10 mg/kg, iv; assay type: organism-based; conditions: in vivo
[20] = Toxicity in female BALB/c mouse implanted with mouse 4T1 cells assessed as heart inflammation at 10 mg/kg, iv; assay type: organism-based; conditions: in vivo
[21] = tested on: 4T1; experiment: Antitumor immunity against mouse 4T1 cells implanted in female BALB/c mouse model assessed as increase in proportion of tumor infiltrating CD8+ T cell at 10 mg/kg, iv administered upto 5 days by flow cytometry analysis; assay type: functional, organism-based; conditions: time <= 5.0 day
[22] = tested on: 4T1; experiment: Antitumor activity against mouse 4T1 cells implanted in female BALB/c mouse model assessed as increase in cleaved caspase-3 level in tumor at 10 mg/kg, iv administered upto 5 days; assay type: functional, organism-based; conditions: time <= 5.0 day
[23] = Toxicity in female BALB/c mouse implanted with mouse 4T1 cells assessed as lung damage at 10 mg/kg, iv; assay type: organism-based; conditions: in vivo
[24] = tested on: 4T1; experiment: Antitumor activity against mouse 4T1 cells implanted in female BALB/c mouse model assessed as increase in TNF-alpha expression in tumor at 10 mg/kg, iv administered upto 5 days; assay type: functional, organism-based; conditions: time <= 5.0 day
[25] = tested on: MDA-MB-468; experiment: Induction of apoptosis in human MDA-MB-468 cells assessed as increase in cleaved caspase 3 level at 25 nM measured after 48 hrs by Western blot analysis; assay type: functional, cell-based
[26] = tested on: MDA-MB-468; experiment: Induction of endoplasmic reticulum (ER) stress-mediated apoptosis in human MDA-MB-468 cells assessed as increase in ATF4 expression at 25 nM measured at 2 hrs by Western blot analysis; assay type: functional, cell-based
[27] = tested on: 4T1; experiment: Antitumor activity against mouse 4T1 cells implanted in female BALB/c mouse assessed as increase in ATF4 level in tumor at 10 mg/kg, iv administered upto 5 days by Western blot analysis; assay type: functional, organism-based; conditions: time <= 5.0 day
[28] = Toxicity in female BALB/c mouse implanted with mouse 4T1 cells assessed as liver abnormality at 10 mg/kg, iv; assay type: organism-based; conditions: in vivo
[29] = tested on: 4T1; experiment: Antitumor activity against mouse 4T1 cells implanted in female BALB/c mouse assessed as increase in MDA level in tumor at 10 mg/kg, iv administered upto 5 days by Western blot analysis; assay type: functional, organism-based; conditions: time <= 5.0 day
[30] = Toxicity in female BALB/c mouse implanted with mouse 4T1 cells assessed as lung inflammation at 10 mg/kg, iv; assay type: organism-based; conditions: in vivo
[31] = tested on: MDA-MB-468; experiment: Inhibition of cell migration in human MDA-MB-468 cells assessed as decrease in cell migration at 25 nM incubated for 48 hrs by wound healing assay; assay type: functional, cell-based
[32] = tested on: Cisplatin-resistant 4T1; experiment: Antitumor activity against mouse Cisplatin-resistant 4T1 cells implanted in female BALB/c mouse assessed as reduction in tumor volume at 10 mg/kg, ip; assay type: functional, organism-based
[33] = tested on: MDA-MB-468; experiment: Induction of apoptosis in human MDA-MB-468 cells assessed as increase in cleaved PARP level at 25 nM measured after 48 hrs by Western blot analysis; assay type: functional, cell-based
[34] = tested on: 4T1; experiment: Antitumor activity against mouse 4T1 cells implanted in female BALB/c mouse assessed as tumor growth inhibition at 10 mg/kg, iv administered upto 5 days; assay type: functional, organism-based; conditions: time <= 5.0 day
[35] = tested on: MDA-MB-468; experiment: Induction of ROS production in human MDA-MB-468 cells assessed as increase in ROS level at 25 nM incubated for 6 hrs by DCFH-DA staining based confocal microscopic analysis; assay type: functional, cell-based
[36] = Toxicity in female BALB/c mouse implanted with mouse 4T1 cells assessed as spleen inflammation at 10 mg/kg, iv; assay type: organism-based; conditions: in vivo
[37] = tested on: MDA-MB-468; experiment: Antiproliferative activity against human MDA-MB-468 cells assessed as reduction in cell viability at 50 nM incubated for 48 hrs in presence of Z-VAD by MTT assay; assay type: functional, cell-based
[38] = tested on: 4T1; experiment: Antitumor activity against mouse 4T1 cells implanted in female BALB/c mouse assessed as reduction in tumor weight at 10 mg/kg, iv administered upto 5 days; assay type: functional, organism-based; conditions: time <= 5.0 day

CCCCCCC[C@@H]1CC(=O)N[C@H](Cc2ccccc2)C(=O)N[C@H]2CSSC[C@H](NC2=O)C(=O)O1
Activity [1]: Active | Activity [2]: Active | Activity [3]: Non-toxic | Activity [4]: Active | Activity [5]: Non-toxic | Activity [6]: Non-toxic | Activity [7]: Active | Activity [8]: Active | Activity [9]: Non-toxic | Activity [10]: Active | Activity [11]: Non-toxic | Activity [12]: Active | Activity [13]: Non-toxic | Activity [14]: Active | Activity [15]: Active | Activity [16]: Active | Activity [17]: Non-toxic | Activity [18]: Time-dependent-effect | Activity [19]: Non-toxic | Activity [20]: Non-toxic | Activity [21]: Active | Activity [22]: Active | Activity [23]: Non-toxic | Activity [24]: Active | Activity [25]: Active | Activity [26]: Active | Activity [27]: Active | Activity [28]: Non-toxic | Activity [29]: Active | Activity [30]: Non-toxic | inhibition [31]: Active | Activity [32]: Active | Activity [33]: Active | TGI [34]: Active | Activity [35]: Active | Activity [36]: Non-toxic | Activity [37]: Active | Activity [38]: Active
